# Assay results published in ChEMBL document CHEMBL1201862, “PubChem BioAssay data set” (2004).
# Calls of active or inactive are those of the source.
# How the values were obtained:
# CHO-K1 = assay: Counterscreen for antagonists of the orexin 1 receptor (OX1R; HCRTR1): Homogeneous time resolved fluorescence (HTRF)-based cell-based dose response assay to identify antagonists of the parental CHO-K1 cell line. [Related pubchem assays (depositor defined):AID434989, AID435008, AID463079, AID485270, AID492963, AID492964, AID492965, AID493232, AID504699, AID504701]; assay type: functional; conditions: Cricetulus griseus;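 further: potency for inhibition of ATP-stimulated IP1 production as antagonists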
# [1] = Counterscreen for antagonists of the orexin 1 receptor (OX1R; HCRTR1): Fluorescence-based cell-based high throughput dose response assay to identify antagonists of the parental CHO cell line. [Related pubchem assays (depositor defined):AID434989, AID435008, AID463079, AID485270, AID492963, AID492964, AID492965, AID493232, AID504699, AID504701]; assay type: functional
# [2] = target: T1, Orexin/Hypocretin receptor type 1 (Homo sapiens, UniProt O43613); assay: Homogeneous Time Resolved Fluorescence (HTRF)-based cell-based high throughput dose response assay for antagonists of the orexin 1 receptor (OX1R; HCRTR1). [Related pubchem assays (depositor defined):AID434989, AID435008, AID463079, AID485270, AID492963, AID492964, AID492965, AID493232, AID504717, AID504718]; assay type: functional
# T1 sequence (O43613 whole entry): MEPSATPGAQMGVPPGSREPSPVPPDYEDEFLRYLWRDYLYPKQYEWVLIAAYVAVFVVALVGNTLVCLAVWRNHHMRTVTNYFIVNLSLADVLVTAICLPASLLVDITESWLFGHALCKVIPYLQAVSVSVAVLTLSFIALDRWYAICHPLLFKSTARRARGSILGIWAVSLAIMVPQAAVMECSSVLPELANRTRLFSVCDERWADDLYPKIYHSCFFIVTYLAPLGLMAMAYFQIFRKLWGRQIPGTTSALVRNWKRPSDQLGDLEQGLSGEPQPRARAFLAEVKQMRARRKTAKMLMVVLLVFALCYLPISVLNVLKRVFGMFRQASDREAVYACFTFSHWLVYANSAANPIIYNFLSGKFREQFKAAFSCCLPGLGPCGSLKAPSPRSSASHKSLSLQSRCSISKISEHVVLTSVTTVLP
# [3] = target: T1, Orexin/Hypocretin receptor type 1; assay: Fluorescence-based cell-based high throughput dose response assay for antagonists of the orexin 1 receptor (OX1R; HCRTR1). [Related pubchem assays (depositor defined):AID434989, AID435008, AID463079, AID485270, AID492963, AID492964, AID492965, AID493232, AID504717, AID504718]; assay type: functional
# Orexin receptor type 2 [4] = target: T2, Orexin receptor type 2 (Homo sapiens, UniProt O43614); assay: Counterscreen assay for antagonists of the orexin 1 receptor (OX1R; HCRTR1): Fluorescence-based cell-based dose response assay for antagonists of the orexin 2 receptor (OX2R; HCRTR2), run by assay provider.; assay type: functional
# T2 sequence (O43614 whole entry): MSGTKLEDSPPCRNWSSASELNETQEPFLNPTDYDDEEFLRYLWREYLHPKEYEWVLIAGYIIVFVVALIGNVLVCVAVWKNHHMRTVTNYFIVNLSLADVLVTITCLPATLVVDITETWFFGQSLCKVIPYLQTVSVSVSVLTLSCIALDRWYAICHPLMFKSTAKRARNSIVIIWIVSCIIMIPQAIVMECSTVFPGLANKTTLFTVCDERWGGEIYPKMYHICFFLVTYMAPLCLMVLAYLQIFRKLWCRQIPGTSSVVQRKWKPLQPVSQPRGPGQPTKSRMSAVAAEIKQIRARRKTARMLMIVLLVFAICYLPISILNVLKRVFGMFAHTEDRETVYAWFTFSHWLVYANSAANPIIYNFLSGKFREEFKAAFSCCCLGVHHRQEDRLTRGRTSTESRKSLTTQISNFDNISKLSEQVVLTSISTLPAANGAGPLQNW
# Orexin receptor type 2 [5] = target: T2, Orexin receptor type 2; assay: Counterscreen assay for antagonists of the orexin 1 receptor (OX1R; HCRTR1): Homogeneous Time Resolved Fluorescence (HTRF)-based cell-based dose response assay for antagonists of the orexin 2 receptor (OX2R; HCRTR2), run by assay provider.; assay type: functional
# [6] = HEp-2 cell cytotoxicity, dose response, cytotoxicity control for RSV inhibitor project, HTS (AID 2410); assay type: functional; conditions: human respiratory syncytial virus
# Insulin-degrading enzyme [7] = target: T3, Insulin-degrading enzyme (Homo sapiens, UniProt P14735); assay: activators of recombinant IDE enzyme, dose response, counter-screen for IDE activator project, biochemical, fluorescence polarization (AID 588681)
# T3 sequence (P14735 whole entry): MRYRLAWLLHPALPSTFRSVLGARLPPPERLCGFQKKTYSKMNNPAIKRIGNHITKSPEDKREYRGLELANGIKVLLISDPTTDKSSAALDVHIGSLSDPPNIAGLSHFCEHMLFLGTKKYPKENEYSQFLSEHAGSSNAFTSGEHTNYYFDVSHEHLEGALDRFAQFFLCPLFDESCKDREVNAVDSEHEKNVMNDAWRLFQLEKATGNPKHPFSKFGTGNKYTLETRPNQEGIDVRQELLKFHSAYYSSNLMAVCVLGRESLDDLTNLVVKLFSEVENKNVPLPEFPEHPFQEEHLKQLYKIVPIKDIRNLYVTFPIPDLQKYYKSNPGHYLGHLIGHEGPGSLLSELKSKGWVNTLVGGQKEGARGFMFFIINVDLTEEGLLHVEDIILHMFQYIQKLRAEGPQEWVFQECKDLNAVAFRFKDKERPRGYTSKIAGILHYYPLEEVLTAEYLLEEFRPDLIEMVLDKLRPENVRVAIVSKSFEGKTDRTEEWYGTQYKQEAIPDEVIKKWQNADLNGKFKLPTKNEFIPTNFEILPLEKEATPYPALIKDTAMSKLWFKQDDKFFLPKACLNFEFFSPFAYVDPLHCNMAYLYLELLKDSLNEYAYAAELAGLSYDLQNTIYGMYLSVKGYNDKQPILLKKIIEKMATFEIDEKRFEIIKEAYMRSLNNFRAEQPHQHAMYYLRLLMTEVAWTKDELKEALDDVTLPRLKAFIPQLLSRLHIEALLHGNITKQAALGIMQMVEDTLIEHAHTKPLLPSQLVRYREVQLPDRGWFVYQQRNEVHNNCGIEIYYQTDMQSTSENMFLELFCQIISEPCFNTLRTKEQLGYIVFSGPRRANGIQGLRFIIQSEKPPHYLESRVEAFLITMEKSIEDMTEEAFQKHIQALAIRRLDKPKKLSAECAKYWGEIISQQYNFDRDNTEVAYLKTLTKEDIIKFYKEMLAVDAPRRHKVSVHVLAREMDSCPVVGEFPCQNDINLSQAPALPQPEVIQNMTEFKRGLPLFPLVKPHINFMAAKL
# Insulin-degrading enzyme [8] = target: T3, Insulin-degrading enzyme; assay: activators of endogenous IDE in HEK cells, dose response, cell-based, fluorescence polarization (AID 588439); assay type: functional
# HEK293 [9] = assay: HEK cell cytotoxicity by LDH release, dose response, cytotoxicity control for IDE activator project, fluorescence, HEK cells (AID 588440); assay type: functional, cell-based; conditions: Homo sapiens;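 further: cytotoxicity by LDH release measuring loss of membrane integrity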
# HEK293 [10] = assay: optical interference in Abeta FP readout, dose response, artefact control for IDE activator project, biochemical, fluorescence polarization (AID 588442); assay type: functional, cell-based; conditions: Homo sapiens
# [11] = target: T4, Apoptotic protease-activating factor 1 (Homo sapiens, UniProt O14727); assay: SAR analysis of small molecule Activators of Apaf-1 in a Fluorescent assay.; assay type: functional; conditions: read-out: EC50_Mean;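 further: caspase-3 cleavage of fluorogenic Rh110 DEVD substrate downstream of apoptosome activation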
# T4 sequence (O14727 whole entry): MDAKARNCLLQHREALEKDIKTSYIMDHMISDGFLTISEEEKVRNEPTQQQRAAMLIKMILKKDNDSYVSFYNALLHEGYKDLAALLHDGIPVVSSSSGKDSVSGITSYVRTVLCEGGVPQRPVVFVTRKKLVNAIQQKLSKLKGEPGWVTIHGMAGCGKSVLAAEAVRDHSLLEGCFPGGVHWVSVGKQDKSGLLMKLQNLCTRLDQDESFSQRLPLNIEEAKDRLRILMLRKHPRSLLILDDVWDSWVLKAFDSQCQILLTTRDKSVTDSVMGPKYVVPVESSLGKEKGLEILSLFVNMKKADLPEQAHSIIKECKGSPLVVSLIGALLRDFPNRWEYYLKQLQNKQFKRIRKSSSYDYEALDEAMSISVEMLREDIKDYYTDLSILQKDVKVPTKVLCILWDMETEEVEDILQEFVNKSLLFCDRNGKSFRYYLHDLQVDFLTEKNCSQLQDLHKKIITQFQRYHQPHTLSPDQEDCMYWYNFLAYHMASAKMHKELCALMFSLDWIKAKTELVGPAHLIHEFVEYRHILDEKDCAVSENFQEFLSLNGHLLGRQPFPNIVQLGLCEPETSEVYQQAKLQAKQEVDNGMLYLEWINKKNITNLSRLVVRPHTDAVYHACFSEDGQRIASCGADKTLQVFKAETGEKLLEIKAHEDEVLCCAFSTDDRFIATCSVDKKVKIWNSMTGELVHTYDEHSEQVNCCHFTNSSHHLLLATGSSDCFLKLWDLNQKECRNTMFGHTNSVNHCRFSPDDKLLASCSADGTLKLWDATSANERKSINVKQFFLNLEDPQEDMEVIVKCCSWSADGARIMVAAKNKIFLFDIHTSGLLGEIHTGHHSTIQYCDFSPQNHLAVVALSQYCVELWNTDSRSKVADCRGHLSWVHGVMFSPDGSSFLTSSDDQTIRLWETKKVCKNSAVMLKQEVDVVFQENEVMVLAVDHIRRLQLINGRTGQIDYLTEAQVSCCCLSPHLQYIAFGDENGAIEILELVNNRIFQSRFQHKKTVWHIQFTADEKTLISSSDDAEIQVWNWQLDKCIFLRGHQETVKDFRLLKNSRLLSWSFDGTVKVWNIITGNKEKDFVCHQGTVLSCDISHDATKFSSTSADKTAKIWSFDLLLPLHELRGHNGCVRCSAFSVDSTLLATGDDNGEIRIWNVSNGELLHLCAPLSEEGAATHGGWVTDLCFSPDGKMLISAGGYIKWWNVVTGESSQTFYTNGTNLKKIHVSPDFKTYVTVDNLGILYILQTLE
# [12] = target: T5, Alkaline phosphatase, tissue-nonspecific isozyme (Homo sapiens, UniProt P05186)
# T5 sequence (P05186 whole entry): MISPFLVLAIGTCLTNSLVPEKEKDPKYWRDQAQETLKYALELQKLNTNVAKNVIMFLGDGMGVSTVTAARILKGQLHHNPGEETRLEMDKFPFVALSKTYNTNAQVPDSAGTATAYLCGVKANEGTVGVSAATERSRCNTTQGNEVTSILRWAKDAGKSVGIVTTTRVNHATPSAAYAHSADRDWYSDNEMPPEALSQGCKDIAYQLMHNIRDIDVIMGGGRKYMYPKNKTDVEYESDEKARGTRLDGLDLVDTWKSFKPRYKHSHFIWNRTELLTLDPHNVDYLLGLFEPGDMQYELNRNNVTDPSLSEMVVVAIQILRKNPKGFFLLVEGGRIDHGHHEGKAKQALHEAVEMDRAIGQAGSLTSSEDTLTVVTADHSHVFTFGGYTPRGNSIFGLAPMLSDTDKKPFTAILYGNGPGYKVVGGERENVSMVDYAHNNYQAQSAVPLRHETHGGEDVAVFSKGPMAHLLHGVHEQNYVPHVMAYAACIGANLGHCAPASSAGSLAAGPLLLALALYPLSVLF
# [13] = target: Voltage-gated N-type calcium channel alpha-1B subunit/Amyloid beta A4 precursor protein-binding family A member 1 (Homo sapiens, UniProt Q00975+Q02410); assay type: protein assay
# [14] = target: Mitochondrial peptide methionine sulfoxide reductase (Bos taurus, UniProt P54149); assay type: functional;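 further: absorbance read-out, biochemical high-throughput dose-response screen for MsrA inhibitors, confirmatory; recombinant bovine MsrA coupled to E. coli TrxB with NADPH and selenocystamine; potency is for inhibitors of MsrA activity on DMSO substrate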
# [15] = target: T6, DNA dC->dU-editing enzyme APOBEC-3A (Homo sapiens, UniProt P31941); assay: SAR analysis of small molecule inhibitors of APOBEC3A DNA Deaminase via a fluorescence-based single-stranded DNA deaminase assay - Set 2.; assay type: functional; conditions: read-out: IC50_Mean
# [16] = target: T7, DNA dC->dU-editing enzyme APOBEC-3G (Homo sapiens, UniProt Q9HC16); assay: SAR analysis of small molecule inhibitors of APOBEC3G DNA Deaminase via a fluorescence-based single-stranded DNA deaminase assay - Set 2.; assay type: functional; conditions: read-out: IC50_Mean
# [17] = target: T7, DNA dC->dU-editing enzyme APOBEC-3G; assay: APOBEC3G deaminase inhibitors, SAR follow-up, biochemical, fluorescence, single-stranded DNA substrate (AID 602136); assay type: functional; conditions: read-out: IC50_Mean
# [18] = target: T6, DNA dC->dU-editing enzyme APOBEC-3A; assay: SAR analysis of small molecule inhibitors of APOBEC3A DNA Deaminase via a fluorescence-based single-stranded DNA deaminase assay.; assay type: functional; conditions: read-out: IC50_Mean
# [19] = target: Ras and Rab interactor 1/Tyrosine-protein kinase ABL1 (Homo sapiens, UniProt P00519+Q13671); assay type: functional;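 further: biochemical TR-FRET dose-response test measuring inhibition of binding between Rin1 and Abl proteins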
# T7 sequence (Q9HC16 whole entry): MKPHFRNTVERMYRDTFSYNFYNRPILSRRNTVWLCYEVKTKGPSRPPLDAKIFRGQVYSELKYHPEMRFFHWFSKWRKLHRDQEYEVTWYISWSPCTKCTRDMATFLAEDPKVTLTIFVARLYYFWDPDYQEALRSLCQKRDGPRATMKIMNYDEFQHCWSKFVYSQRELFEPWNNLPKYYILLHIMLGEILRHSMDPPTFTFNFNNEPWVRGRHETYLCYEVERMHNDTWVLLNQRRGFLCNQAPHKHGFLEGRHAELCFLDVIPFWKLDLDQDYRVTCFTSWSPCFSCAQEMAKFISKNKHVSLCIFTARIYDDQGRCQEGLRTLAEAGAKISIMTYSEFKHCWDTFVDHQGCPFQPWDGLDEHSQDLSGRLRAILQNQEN
# T6 sequence (P31941 whole entry): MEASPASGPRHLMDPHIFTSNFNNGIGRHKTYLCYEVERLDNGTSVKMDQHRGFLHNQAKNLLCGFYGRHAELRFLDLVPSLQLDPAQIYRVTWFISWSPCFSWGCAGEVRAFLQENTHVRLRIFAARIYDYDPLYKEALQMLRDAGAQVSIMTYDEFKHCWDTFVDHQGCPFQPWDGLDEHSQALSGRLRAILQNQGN
# Mitochondrial peptide methionine sulfoxide reductase, sequence (P54149 whole entry): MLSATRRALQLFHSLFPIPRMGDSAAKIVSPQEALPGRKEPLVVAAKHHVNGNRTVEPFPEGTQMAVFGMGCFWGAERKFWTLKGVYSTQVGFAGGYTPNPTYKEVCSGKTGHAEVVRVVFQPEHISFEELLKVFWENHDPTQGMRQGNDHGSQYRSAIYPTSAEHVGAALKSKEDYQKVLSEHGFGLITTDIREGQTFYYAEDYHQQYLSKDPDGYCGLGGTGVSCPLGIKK
# Voltage-gated N-type calcium channel alpha-1B subunit/Amyloid beta A4 precursor protein-binding family A member 1, sequence (Q00975 whole entry): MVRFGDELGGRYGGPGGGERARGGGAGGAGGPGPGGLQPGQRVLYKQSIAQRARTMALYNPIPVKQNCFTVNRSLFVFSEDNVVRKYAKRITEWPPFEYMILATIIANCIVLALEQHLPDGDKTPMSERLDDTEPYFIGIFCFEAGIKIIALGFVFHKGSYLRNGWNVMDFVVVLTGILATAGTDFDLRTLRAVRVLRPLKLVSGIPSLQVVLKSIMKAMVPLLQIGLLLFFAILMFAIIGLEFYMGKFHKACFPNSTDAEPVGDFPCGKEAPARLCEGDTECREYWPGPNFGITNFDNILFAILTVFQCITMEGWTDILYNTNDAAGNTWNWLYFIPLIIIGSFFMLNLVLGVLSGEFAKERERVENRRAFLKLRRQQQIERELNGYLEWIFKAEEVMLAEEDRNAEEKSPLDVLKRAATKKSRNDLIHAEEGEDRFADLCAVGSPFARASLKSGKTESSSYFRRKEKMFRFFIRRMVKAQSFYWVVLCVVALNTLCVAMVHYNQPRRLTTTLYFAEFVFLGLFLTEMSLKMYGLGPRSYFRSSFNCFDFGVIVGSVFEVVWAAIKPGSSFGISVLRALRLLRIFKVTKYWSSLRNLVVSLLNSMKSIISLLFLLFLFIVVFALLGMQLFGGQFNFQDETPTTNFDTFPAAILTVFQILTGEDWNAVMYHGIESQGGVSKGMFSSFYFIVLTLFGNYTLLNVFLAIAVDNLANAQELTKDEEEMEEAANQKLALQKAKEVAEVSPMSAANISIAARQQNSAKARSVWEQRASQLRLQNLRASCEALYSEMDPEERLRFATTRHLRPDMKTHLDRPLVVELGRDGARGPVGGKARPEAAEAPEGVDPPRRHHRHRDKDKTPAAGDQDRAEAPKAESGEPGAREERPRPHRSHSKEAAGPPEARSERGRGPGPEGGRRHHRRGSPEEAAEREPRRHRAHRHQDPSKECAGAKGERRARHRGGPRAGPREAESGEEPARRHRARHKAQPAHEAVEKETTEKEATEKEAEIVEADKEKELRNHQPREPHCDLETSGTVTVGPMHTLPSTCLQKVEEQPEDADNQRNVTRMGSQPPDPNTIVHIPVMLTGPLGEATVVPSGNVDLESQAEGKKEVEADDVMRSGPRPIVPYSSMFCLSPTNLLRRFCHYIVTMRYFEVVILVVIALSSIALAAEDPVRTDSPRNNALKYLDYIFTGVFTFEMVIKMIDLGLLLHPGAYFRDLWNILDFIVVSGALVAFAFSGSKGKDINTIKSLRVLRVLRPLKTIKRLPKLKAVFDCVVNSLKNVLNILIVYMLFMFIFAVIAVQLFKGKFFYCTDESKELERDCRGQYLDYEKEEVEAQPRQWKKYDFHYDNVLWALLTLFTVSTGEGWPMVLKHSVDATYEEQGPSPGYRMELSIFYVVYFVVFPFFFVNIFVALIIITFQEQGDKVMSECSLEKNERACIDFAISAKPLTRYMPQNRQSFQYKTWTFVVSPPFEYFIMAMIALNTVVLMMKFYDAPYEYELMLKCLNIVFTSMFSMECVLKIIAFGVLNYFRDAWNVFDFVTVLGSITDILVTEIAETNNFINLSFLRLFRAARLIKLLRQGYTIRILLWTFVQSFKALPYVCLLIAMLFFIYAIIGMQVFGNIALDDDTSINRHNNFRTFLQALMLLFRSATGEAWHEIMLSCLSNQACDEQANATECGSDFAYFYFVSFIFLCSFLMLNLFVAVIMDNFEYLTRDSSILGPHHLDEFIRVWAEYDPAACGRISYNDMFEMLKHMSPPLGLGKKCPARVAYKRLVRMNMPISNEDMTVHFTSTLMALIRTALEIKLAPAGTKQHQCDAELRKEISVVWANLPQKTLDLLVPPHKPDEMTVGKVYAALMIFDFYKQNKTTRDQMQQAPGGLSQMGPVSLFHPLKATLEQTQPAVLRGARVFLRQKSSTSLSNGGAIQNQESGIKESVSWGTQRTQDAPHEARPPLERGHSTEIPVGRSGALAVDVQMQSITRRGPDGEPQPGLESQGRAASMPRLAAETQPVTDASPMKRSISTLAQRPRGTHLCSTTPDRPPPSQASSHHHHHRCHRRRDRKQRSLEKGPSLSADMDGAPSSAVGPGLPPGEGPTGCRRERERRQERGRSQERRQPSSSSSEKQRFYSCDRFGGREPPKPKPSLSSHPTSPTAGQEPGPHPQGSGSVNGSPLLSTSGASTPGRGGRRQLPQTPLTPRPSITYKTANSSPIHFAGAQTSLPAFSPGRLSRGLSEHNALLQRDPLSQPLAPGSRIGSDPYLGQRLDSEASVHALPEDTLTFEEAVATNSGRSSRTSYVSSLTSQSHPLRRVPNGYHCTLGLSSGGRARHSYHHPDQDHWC
# Voltage-gated N-type calcium channel alpha-1B subunit/Amyloid beta A4 precursor protein-binding family A member 1, sequence (Q02410 whole entry): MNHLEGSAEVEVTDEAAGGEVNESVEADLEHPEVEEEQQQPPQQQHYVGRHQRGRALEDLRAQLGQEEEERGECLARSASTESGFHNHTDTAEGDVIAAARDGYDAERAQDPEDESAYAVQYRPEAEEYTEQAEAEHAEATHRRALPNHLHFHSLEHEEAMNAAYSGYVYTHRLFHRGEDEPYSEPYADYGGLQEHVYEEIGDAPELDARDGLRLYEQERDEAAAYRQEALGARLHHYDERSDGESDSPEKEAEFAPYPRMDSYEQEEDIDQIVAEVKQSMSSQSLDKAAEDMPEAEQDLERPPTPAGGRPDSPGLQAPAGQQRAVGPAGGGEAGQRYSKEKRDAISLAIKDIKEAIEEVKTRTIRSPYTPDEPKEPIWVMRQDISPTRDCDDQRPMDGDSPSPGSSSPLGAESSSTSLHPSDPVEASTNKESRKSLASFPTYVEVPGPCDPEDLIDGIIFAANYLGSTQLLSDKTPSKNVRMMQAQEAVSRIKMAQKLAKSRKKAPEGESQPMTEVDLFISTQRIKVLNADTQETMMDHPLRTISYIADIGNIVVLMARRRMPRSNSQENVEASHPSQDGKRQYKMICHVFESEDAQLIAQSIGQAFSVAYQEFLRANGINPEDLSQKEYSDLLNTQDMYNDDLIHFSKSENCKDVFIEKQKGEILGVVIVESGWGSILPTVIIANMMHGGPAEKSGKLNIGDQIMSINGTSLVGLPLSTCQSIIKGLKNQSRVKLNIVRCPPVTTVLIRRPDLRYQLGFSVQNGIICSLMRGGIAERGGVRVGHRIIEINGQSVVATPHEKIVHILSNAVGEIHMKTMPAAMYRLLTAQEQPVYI
smiles,measurement,setting,value
Cc1ccc(NC2CCCN(C(=O)c3cn(C)c4ccccc34)C2)cc1C (stereo unspecified),IC50,CHO-K1,> 66.2 µM (inactive)
same,IC50,[1],> 49.7 µM (inactive)
same,IC50,[2],0.771 µM (active)
same,IC50,[3],8.18 µM (active)
same,IC50,Orexin receptor type 2 [4],7.1 µM (active)
same,IC50,Orexin receptor type 2 [5],1.64 µM (active)
Oc1ccc(C2Nc3cccc4cccc(c34)N2)cc1,CC50,[6],21.8 µM (active)
same,EC50,Insulin-degrading enzyme [7],6.73 µM (active)
same,EC50,Insulin-degrading enzyme [8],11.1 µM (inactive)
same,IC50,HEK293 [9],> 89.2 µM (inactive)
same,EC50,HEK293 [10],20.4 µM (inactive)
COC(=O)c1coc(-c2cc3ccccc3s2)n1,EC50,[11],> 100 µM (inactive)
CCN(CC)c1ccc(NC(=O)Cn2c(C(C)NC(=O)c3ccccc3)nc3ccccc32)cc1 (stereo unspecified),EC50,[12],> 100 µM (not active)
same,IC50,[13],> 50 µM (inactive)
same,IC50,CHO-K1,> 66.2 µM (inactive)
same,IC50,[1],> 49.7 µM (inactive)
same,IC50,[2],0.106 µM (active)
same,IC50,[3],0.382 µM (active)
same,IC50,Orexin receptor type 2 [4],> 88.8 µM (inactive)
same,IC50,Orexin receptor type 2 [5],> 50 µM (inactive)
O=C(NCc1cccnc1)c1ccc(=O)oc1,IC50,[14],140 µM (inactive)
Cc1ccc(C=Nn2c(-c3ccco3)n[nH]c2=S)s1,IC50,[15],85.5 µM (inactive)
same,IC50,[16],3.67 µM (active)
same,IC50,[17],2.09 µM (active)
same,IC50,[18],> 99 µM (inactive)
OC[C@@H]1CN(Cc2ccc(-c3ccccc3)cc2)C[C@H](n2cnc3c(NC4CC4)ncnc32)O1,IC50,[19],16.9 µM (inactive)
